Measurements from ChEMBL document CHEMBL1133790, “Heteroaryl and cycloalkyl sulfonamide hydroxamic acid inhibitors of matrix metalloproteinases” (Bioorg Med Chem Lett, 2001).
Each block holds one molecule with its values, some of them ahead of it. Calls of active or inactive are those of the source. The rule behind the calls is not given here.

Experiments:
[1] = target: T1, Interstitial collagenase (Homo sapiens) (UniProt P03956); experiment: Inhibition of Matrix metalloprotease-1 at 1 uM
T1 sequence (whole entry): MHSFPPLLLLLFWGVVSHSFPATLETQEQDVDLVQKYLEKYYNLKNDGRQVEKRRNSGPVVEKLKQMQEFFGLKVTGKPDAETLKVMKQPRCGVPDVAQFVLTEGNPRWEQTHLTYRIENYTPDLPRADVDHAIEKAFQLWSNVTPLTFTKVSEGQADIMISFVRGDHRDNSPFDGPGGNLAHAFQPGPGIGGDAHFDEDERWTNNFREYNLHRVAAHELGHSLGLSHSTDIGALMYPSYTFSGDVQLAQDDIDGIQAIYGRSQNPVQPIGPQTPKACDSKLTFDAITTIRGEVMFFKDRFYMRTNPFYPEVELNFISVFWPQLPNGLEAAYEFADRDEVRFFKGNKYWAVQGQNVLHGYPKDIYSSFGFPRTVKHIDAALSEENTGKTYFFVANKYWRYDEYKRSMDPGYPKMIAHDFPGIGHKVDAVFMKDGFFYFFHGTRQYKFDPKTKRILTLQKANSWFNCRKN

[2] = target: T2, Matrix metalloproteinase-9 (Homo sapiens, UniProt P14780); experiment: Inhibition of Matrix metalloprotease-9 at 10 uM
T2 sequence (P14780 whole entry): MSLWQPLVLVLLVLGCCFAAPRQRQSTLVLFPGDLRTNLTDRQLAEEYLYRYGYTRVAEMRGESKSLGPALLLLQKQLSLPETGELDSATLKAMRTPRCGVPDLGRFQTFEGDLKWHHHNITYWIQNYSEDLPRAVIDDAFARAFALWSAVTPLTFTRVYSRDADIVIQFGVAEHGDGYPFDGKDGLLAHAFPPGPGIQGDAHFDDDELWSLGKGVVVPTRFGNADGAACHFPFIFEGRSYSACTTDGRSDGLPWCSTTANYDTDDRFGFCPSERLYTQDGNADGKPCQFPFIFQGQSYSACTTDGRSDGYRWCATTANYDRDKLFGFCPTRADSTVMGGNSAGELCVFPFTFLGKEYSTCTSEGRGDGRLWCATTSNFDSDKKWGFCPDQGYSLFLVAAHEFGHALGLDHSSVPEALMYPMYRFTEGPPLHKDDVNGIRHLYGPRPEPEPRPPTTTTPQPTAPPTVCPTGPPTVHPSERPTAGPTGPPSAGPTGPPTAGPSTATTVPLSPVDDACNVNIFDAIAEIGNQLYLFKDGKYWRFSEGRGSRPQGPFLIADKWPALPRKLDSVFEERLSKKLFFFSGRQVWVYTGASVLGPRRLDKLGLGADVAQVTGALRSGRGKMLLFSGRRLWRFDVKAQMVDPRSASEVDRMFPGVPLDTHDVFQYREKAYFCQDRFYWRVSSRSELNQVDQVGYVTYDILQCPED

[3] = target: T2, Matrix metalloproteinase-9; experiment: Inhibition of Matrix metalloprotease-9
Collagenase 3 [4] = target: T3, Collagenase 3 (Homo sapiens, UniProt P45452); experiment: Inhibition of Matrix metalloprotease-13
[5] = target: T2, Matrix metalloproteinase-9; experiment: Inhibition of Matrix metalloprotease-9 at 0.3 uM
Collagenase 3 [6] = target: T3, Collagenase 3; experiment: Inhibition of Matrix metalloprotease-13 at 0.3 uM
Rattus norvegicus [7] = experiment: In vivo inhibitory activity against Matrix metalloprotease-13 in rat dialysis implant bioactivity model at a concentration of 50 mg/kg; Not active; type: functional, organism-based; parameters: dose 50 mg/kg
Interstitial collagenase = target: T4, Interstitial collagenase (Homo sapiens, UniProt P03956); experiment: Inhibition of Matrix metalloprotease-1
T4 sequence (P03956 whole entry): T1 sequence (whole entry)

Rattus norvegicus [8] = experiment: Inhibitory activity against MMP-9 in rat dialysis implant bioactivity model at oral dose of 100 mg/kg; In active; type: functional, organism-based; parameters: dose 100 mg/kg

inhibition [1]: 40%
inhibition [2]: 67%
Structure (SMILES): COc1ccc(S(=O)(=O)N(Cc2ccccc2)c2cscc2C(=O)NO)cc1

IC50 [3]: 900 nM
inhibition [1]: 22%
Structure (SMILES): COc1ccc(S(=O)(=O)N(Cc2ccccc2)c2c(C(=O)NO)cnn2C)cc1

IC50 (Collagenase 3 [4]): 427 nM
Structure (SMILES): COc1ccc(S(=O)(=O)N(Cc2ccccc2)c2c(C(=O)NO)csc2Br)cc1

inhibition [5]: 38%
inhibition [1]: 49%
inhibition (Collagenase 3 [6]): 35%
Structure (SMILES): C#Cc1scc(C(=O)NO)c1N(Cc1ccccc1)S(=O)(=O)c1ccc(OC)cc1

Structure (SMILES): COc1ccc(S(=O)(=O)N(Cc2ccccc2)c2c(C(=O)NO)cc(OC)nc2OC)cc1
Activity (Rattus norvegicus [7]): inactive

IC50 [3]: 318 nM
IC50 (Interstitial collagenase): 361 nM
Structure (SMILES): COc1ccc(S(=O)(=O)N(Cc2ccccc2)[C@H]2CCCC[C@H]2C(=O)NO)cc1

IC50 [3]: 181 nM
IC50 (Interstitial collagenase): 174 nM
Structure (SMILES): COc1ccc(S(=O)(=O)N(Cc2ccccc2)C2CCCC[C@H]2C(=O)NO)cc1 (some centres not stated)

inhibition [1]: 50%
Structure (SMILES): COc1ccc(S(=O)(=O)N(Cc2cccnc2)c2c(C(=O)NO)csc2Br)cc1
Activity (Rattus norvegicus [8]): inactive

inhibition [1]: 19%
inhibition [2]: 57%
Structure (SMILES): COc1ccc(S(=O)(=O)N(Cc2ccccc2)c2ccsc2C(=O)NO)cc1
